Test [1] relates to HCT-116. Briefly: Ability of compound to inhibit anchorage independent colony formation (soft agar growth assay) in HCT116 cells. The test is classed as functional. Particulars: Homo sapiens.
In test [2] the test system is HCT-116. The experiment in a line: Antiproliferative activity was evaluated using HCT116 cells in WST-1 assay. The conditions noted are these: Homo sapiens. The test is classed as functional.
The target in test [3] is T1, Serine/threonine-protein kinase RAF and Dual specificity mitogen-activated protein kinase kinase 1 (Raf/MEK) (Homo sapiens, UniProt P04049+Q02750). Briefly: Inhibitory activity in EGF-stimulated Elk1-luciferase reporter assay in HeLa cells at 20 uM. The test is classed as functional, cell-based. For orientation: Reporter assays use an easily measured gene product as a stand-in for the process of interest.

Test [4] deals with T1, Serine/threonine-protein kinase RAF and Dual specificity mitogen-activated protein kinase kinase 1 (Raf/MEK). The experiment in a line: Inhibition of EGF-stimulated Elk1-luciferase reporter assay in HeLa cells. The test is classed as functional, cell-based.
For test [5] the target is unchanged. The experiment in a line: Inhibitory activity in EGF-stimulated Elk1-luciferase reporter assay in HeLa cells at 30 uM. The test is classed as functional, cell-based.
The target is the same in test [6]. Briefly: Inhibitory activity in EGF-stimulated Elk1-luciferase reporter assay in HeLa cells at 15 uM. The test is classed as functional, cell-based.
Test [7] deals with HCT-116. Briefly: Antiproliferative activity was evaluated using HCT116 cells in WST-1 assay at 60 uM. The test is classed as functional. Particulars: Homo sapiens. For orientation: Tetrazolium assays rely on reduction of a dye to a coloured formazan, in cell work by metabolically active cells.
Test [8] has as its target T1, Serine/threonine-protein kinase RAF and Dual specificity mitogen-activated protein kinase kinase 1 (Raf/MEK). The experiment in a line: Inhibitory activity in EGF-stimulated Elk1-luciferase reporter assay in HeLa cells at 60 uM. The test is classed as functional, cell-based.
Test [9] concerns HCT-116. The experiment in a line: cells. Particulars: Homo sapiens.
Description: Antiproliferative activity was evaluated using HCT116 cells in WST-1 assay at 15 uM

Molecules are shown by their SMILES.

T1 sequence (P04049 whole entry, looked up): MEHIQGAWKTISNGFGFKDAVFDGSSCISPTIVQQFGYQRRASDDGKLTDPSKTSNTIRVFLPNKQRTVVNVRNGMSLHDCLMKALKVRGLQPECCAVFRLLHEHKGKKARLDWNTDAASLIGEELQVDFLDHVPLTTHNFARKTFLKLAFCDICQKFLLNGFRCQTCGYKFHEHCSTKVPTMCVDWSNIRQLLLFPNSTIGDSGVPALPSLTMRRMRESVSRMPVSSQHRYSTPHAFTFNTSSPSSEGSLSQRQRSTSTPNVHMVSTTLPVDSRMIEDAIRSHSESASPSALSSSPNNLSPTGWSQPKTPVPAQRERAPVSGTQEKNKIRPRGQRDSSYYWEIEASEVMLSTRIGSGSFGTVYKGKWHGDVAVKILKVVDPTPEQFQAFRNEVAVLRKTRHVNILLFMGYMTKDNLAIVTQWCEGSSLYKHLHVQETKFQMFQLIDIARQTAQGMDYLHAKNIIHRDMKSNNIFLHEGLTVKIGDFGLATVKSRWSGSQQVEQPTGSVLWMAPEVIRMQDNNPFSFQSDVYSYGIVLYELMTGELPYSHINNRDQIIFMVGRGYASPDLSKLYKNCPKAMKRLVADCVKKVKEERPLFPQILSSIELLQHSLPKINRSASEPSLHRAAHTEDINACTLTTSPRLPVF
T1 sequence (Q02750 whole entry, looked up): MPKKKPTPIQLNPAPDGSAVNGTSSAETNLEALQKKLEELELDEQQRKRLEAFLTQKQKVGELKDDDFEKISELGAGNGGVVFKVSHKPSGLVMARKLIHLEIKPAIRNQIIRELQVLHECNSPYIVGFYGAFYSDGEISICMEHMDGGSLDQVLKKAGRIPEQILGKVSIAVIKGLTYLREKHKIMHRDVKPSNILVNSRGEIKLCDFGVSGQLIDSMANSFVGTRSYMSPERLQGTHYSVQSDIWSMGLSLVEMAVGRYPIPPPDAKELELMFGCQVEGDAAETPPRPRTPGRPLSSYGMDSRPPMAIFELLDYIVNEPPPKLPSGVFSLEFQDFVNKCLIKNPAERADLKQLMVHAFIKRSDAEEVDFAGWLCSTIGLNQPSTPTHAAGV

As to `CNC(=O)c1cc(Oc2ccc(NC(=O)Nc3ccc(Cl)c(C(F)(F)F)c3)cc2)ccn1` [SORAFENIB], the 50% growth inhibitory concentration (GI50) (usually the concentration that inhibits growth by half) was found to be 6.6 µM with HCT-116 [1] and 5.4 µM in the test on HCT-116 [2].
Consider `COc1ccc(CN(CCc2ccccn2)C(=O)c2ccccc2Cl)cc1OC`, for which the inhibition (usually the relative decrease from the control value, in per cent) in test [3] came out at 24%.
Take `O=C(CCCCc1ccccc1)N(CCc1ccccn1)Cc1ccc(OCc2ccccc2)c(O)c1`: in the test on HCT-116 [2], the concentration for 50% growth inhibition (GI50) was determined as 31.6 µM. Also, the concentration for half-maximal inhibition (IC50) (commonly the concentration needed to halve the response being measured) in [4] stood at 19.4 µM.
`COc1cc(CN(CCc2ccccn2)C(=O)C(N)Cc2ccccc2)ccc1OCc1ccccc1` (centres undefined) showed an inhibition in [3] of 14%.
Turning to `COc1cc(CN(CCC2CCCCN2)C(=O)CCCc2ccccc2)ccc1OCc1ccccc1` (centres undefined), the inhibition in test [5] is 100%; in test [6] it was 0%. Also, the 50% growth inhibitory concentration (GI50) in the test on HCT-116 [1] was determined as 3.5 µM; in the test on HCT-116 [2], 5.4 µM.
In the case of `COc1cc(CN(CCc2ccccn2)C(=O)CCCCc2ccccc2)ccc1OCc1ccccc1`, the GI50 came to 20.6 µM in the test with HCT-116 [1] and 16.2 µM with HCT-116 [2]. Besides, in [4], the IC50 was determined as 9 µM.
Consider `COc1cc(CN(Cc2ccccc2Cl)C(=O)Cc2ccccn2)ccc1OCc1ccccc1`, for which the IC50 in test [4] worked out at 25.3 µM.
In test [3], `COc1cc(CN(CCc2ccccn2)C(=O)CNCc2ccccc2)ccc1OCc1ccccc1` came in with an inhibition of 6%.
With `COc1cc(C(=O)N(CCc2ccccn2)Cc2ccccc2Cl)ccc1OCc1ccccc1`, the 50% growth inhibitory concentration (GI50) in the test on HCT-116 [1] was 18.8 µM; in the test with HCT-116 [2], 29 µM. In [4], this compound returned a concentration for half-maximal inhibition (IC50) of 16.2 µM.
As to `COc1cc(CN(CCc2cccc(O)n2)C(=O)CCCCc2ccccc2)ccc1OCc1ccccc1`, the results for the GI50 with HCT-116 [1] and with HCT-116 [2] were 32.3 µM and 22.6 µM, respectively. Further, in [4], the half-inhibitory concentration (IC50) came out at 12.3 µM.
Compound `COc1ccc(CN(CCc2ccccn2)C(=O)c2ccccc2Cl)cc1OCc1ccccc1` yielded an inhibition in test [3] of 32%.
Compound `O=C(c1ccccc1Cl)N(CCc1ccccn1)CC1CCN(CCc2ccccc2)CC1` displayed an inhibition at 60 µM in the test on HCT-116 [7] of 32%. Moreover, in test [8], the inhibition came to 7%.
As to `COc1cc(CN(CCc2ccccn2)C(=O)c2ccccc2Cl)ccc1OCc1ccccc1`, the results for the GI50 in the test with HCT-116 [1] and in the test on HCT-116 [2] were 22.1 µM and 24.7 µM, respectively. The same compound yielded a half-inhibitory concentration (IC50) in [4] of 20.6 µM.
`N#CC(=C(/N)Sc1ccccc1N)/C(C#N)=C(\N)Sc1ccccc1N` registered a GI50 with HCT-116 [1] of 19.4 µM. Also, 15 µM produced 35% inhibition in the test on HCT-116 [9].
In the case of `COc1cc(CN(CCc2ccccn2)C(=O)C2CC2c2ccccc2)ccc1OCc1ccccc1` (trans isomer), the GI50 with HCT-116 [1] came to 25.9 µM; with HCT-116 [2] it was 23.9 µM. The IC50 in test [4] stood at 10.5 µM.
Regarding `COc1cc(CN(CCc2ccccn2)C(=O)COCc2ccccc2)ccc1OCc1ccccc1`, in test [3], the inhibition was found to be 43%.
For the compound `COc1cc(CN(CCc2ccccn2)C(=O)CCC(C)c2ccccc2)ccc1OCc1ccccc1` (centres undefined), the GI50 amounted to 23.5 µM in the test with HCT-116 [1] and 13.2 µM with HCT-116 [2]. For the same compound, the IC50 in test [4] is 11.2 µM.
The corresponding values for `O=C(CCCCc1ccccc1)N(CCc1ccccn1)Cc1ccc(OCc2ccccc2)c(OCCO)c1` are 14.4 µM, 18.6 µM and 14.2 µM.

These data come from ChEMBL document CHEMBL1137122, “Solution phase parallel synthesis and evaluation of MAPK inhibitory activities of close structural analogues of a Ras pathway modulator” (Bioorg Med Chem Lett, 2004).
